Results as given in patent US20080103191A1, “ENTACAPONE-DERIVATIVES” (priority 2006, published 2008).
Values after ≈ are worked out from the molar mass of the structure shown. Like-named read-outs stand apart in the source and are kept apart here.

Legend:
[1] = Permeability in Caco-2 cells, apical to basolateral; type: in vitro ADME; set-up: dose or concentration left out as unconfirmed; details: human; 21d Caco-2 monolayer, apical pH 6.5 to basolateral pH 7.4, 60 minutes
From the text: The human adenocarcinoma cell line Caco-2 is used as an in vitro system to predict oral absorption. These cells serve as a model of small bowel tissue and permeation through these cells is a predictor for gastro-intestinal absorption. Further to being a model for oral absorption, permeability in Caco-2 cells may be predictive for the blood brain barrier permeability (P. Garberg et al.; Toxicology in vitro 19 (2005); 299-334). […] The permeability in Caco-2 cells has been tested by the following method:
The permeability of selected compounds of formula I across Caco-2 (21d Caco-2-culture) monolayer in the apical to basolateral direction is investigated. Control substances were ^3H-propranolol and ^3H-mannitol.
The nominal concentration of the test items is […]. The pH value is set to 6.5 for the apical transport medium and to 7.4 for the basolateral medium. Samples are obtained following 60 minutes (120 minutes for control samples) incubation from the basolateral receiver chamber. At sampling time approximately 600 μL of each well are transferred into an eppendorf vial and stored between −12° and −30° C. until HPLC or LC-MS/MS analysis. The control substances are quantified by liquid scintillation.

[2] = Chemical hydrolysis stability at pH 1 and pH 7.4 (HPLC); type: physicochemical; details: 37° C., over 12 h
Method: The stability of compounds of the present invention is tested at pH 1 and at pH 7.4. The testing is carried out by the following HPLC method:
Chemical hydrolysis rates t1/2 [h] of selected compounds of formula I are determined in 0.1 N HCl (pH 1) and PBS buffer (pH 7.4) solution. Solutions are prepared by dissolving an appropriate amount of compound in 0.1 N HCl and PBS buffer solution. Samples were withdrawn at designated time intervals and analysed for remaining prodrug by HPLC at 37° C. over 12 h.
Reversed phase gradient HPLC method, column YMC Pro C8, 50 mm×4.0 mm, 3 μm, Eluent A: Water:trifluoroacetic acid (100:0.5 (v/v)), Eluent B: Acetonitrile:trifluoroacetic:acid (100:0.5 (v/v)). Column temperature 30° C., Flow rate 3.0 mL/min, Detection wavelength: 220 nm
For evaluation, the peak area of the respective compound from the first injection is defined as 100% relative concentration. The peak areas of all other subsequent injections are calculated in percentage relating to this standard. (relative concentration in %). The relative concentrations are plotted in a logarithmic scale (ln) against the injection times. Based on the assumption of a first order kinetic, the rate constant and half life times (t1/2 [h]) can be calculated.

[3] = Log D (pH 7.4) by isocratic HPLC; type: physicochemical; details: YMC Pro C18 column, phosphate buffer pH 7.4/acetonitrile 45/55
Method: LogD is an indicator for absorption and lipophilicity for ionized compounds under defined pH conditions and is measured by applying an isocratic HPLC Method at pH 7.4.
The log D has been tested at pH 7.4. The testing has been carried out by the following method: Isocratic HPLC method: Column YMC Pro C18, 150 mm×4.0 mm, 3 μm, Eluent Phosphate buffer pH 7.4/acetonitrile (45/55, (v/v)), Runtime 15-60 min, Flow rate 1.2 ml/min, Detection wavelength: 220 nm

[4] = Solubility in 0.1 N HCl, PBS buffer, FaSSIF and FeSSIF; type: physicochemical; details: thermodynamic from solid, ambient temperature
Method: For testing solubility, saturated solutions of selected compounds of formula I are prepared in four different systems and compared to the solubility of entacapone. The solubility is tested in 0.1 N HCl (pH 1), PBS buffer (pH 7.4) and in two simulated gastric fluids, FaSSIF at pH 6.5 (for fasting state) and FeSSIF at pH 5.0 (for fed state) at ambient temperature. The content of the FaSSIF simulated gastric fluid is as follows:
The solubility testing is carried out by the following method: An excess amount of each compound is added to a 0.1 N HCl, PBS buffer, FeSSIF and FaSSIF. The suspensions are shaken for 10 min. After centrifugation the concentration is determined by HPLC. Reversed phase gradient HPLC method, column YMC Pro C8, 50 mm×4.0 mm, 3 μm, Eluent A: Water:trifluoroacetic acid (100:0.5 (v/v)), Eluent B: Acetonitrile:trifluoroacetic:acid (100:0.5 (v/v)). Column temperature 30° C., Flow rate 3.0 mL/min, Detection wavelength: 220 nm

[5] = pH 1, 0.1 N HCl, read-out: t1/2 at pH 1 (converted)
[6] = pH 7.4, PBS buffer, read-out: t1/2 at pH 7.4 (converted)
[7] = FaSSIF, pH 6.5, fassif, fasting state fluid, read-out: Solubility FaSSIF Ph 6.5
[8] = FeSSIF, pH 5, fessif, fed state fluid, read-out: Solubility FeSSIF Ph 5.0
[9] = PBS buffer, pH 7.4, aqueous buffer, read-out: Solubility PBS Ph 7.4
[10] = 0.1 N HCl, pH 1, simulated gastric fluid, shaken 10 min, read-out: Solubility 0.1N HCl Ph 1.0

| Compound | Papp A→B at 60 min [1] | half-life [2, 5] | half-life [2, 6] | chromatographic logD [3] | solubility at 10 min [4, 7] | solubility at 10 min [4, 8] | solubility at 10 min [4, 9] | solubility at 10 min [4, 10] |
| --- | --- | --- | --- | --- | --- | --- | --- | --- |
| CCN(CC)C(=O)/C(C#N)=C/c1cc(OC(=O)OC(C)(C)C(=O)OC)c(O)c([N+](=O)[O-])c1 [Compound 20, 2-[5-((E)-2-Cyano-2-diethylcarbamoyl-vinyl)-2-hydroxy-3-nitro-phenoxycarbonyloxy]-2-methyl-propionic acid methyl ester] | 11.7 ×10⁻⁶ cm/s |  |  |  |  |  |  |  |
| CCN(CC)C(=O)/C(C#N)=C/c1cc(OC(=O)OC(C)c2ccccc2)c(O)c([N+](=O)[O-])c1 (stereo not drawn) [Compound 137, Carbonic acid 5-((E)-2-cyano-2-diethylcarbamoyl-vinyl)-2-hydroxy-3-nitro-phenyl ester 1-phenyl-ethyl ester] |  | 7.8 h | 21.4 h | 2.6 | 150 µg/mL (≈ 331 µM) | 20 µg/mL (≈ 44.1 µM) | 340 µg/mL (≈ 750 µM) |  |
| CCN(CC)C(=O)/C(C#N)=C/c1cc(OC(=O)OCc2ccc3c(c2)OCO3)c(O)c([N+](=O)[O-])c1 [Compound 131, Carbonic acid benzo[1,3]dioxol-5-ylmethyl ester 5-((E)-2-cyano-2-diethylcarbamoyl-vinyl)-2-hydroxy-3-nitro-phenyl ester] |  | 15.3 h | 3.4 h | 0.9 | 960 µg/mL (≈ 1990 µM) | 710 µg/mL (≈ 1470 µM) | 970 µg/mL (≈ 2010 µM) | 20 µg/mL (≈ 41.4 µM) |
| CCN(CC)C(=O)/C(C#N)=C/c1cc(OC(=O)OCC(=O)O)c(O)c([N+](=O)[O-])c1 [Compound 146, [5-((E)-2-Cyano-2-diethylcarbamoyl-vinyl)-2-hydroxy-3-nitro-phenoxycarbonyloxy]-acetic acid] |  | 11 h | 12.2 h | 1.7 | 630 µg/mL (≈ 1550 µM) | 250 µg/mL (≈ 614 µM) | 830 µg/mL (≈ 2040 µM) | 30 µg/mL (≈ 73.6 µM) |
| CCOC(=O)C(C)(C)OC(=O)Oc1cc(/C=C(\C#N)C(=O)N(CC)CC)cc([N+](=O)[O-])c1O [Compound 26, 2-[5-((E)-2-Cyano-2-diethylcarbamoyl-vinyl)-2-hydroxy-3-nitro-phenoxycarbonyloxy]-2-methyl-propionic acid ethyl ester] | < 5.1 ×10⁻⁶ cm/s |  |  |  |  |  |  |  |
| CCOC(=O)CC(C)OC(=O)Oc1cc(/C=C(\C#N)C(=O)N(CC)CC)cc([N+](=O)[O-])c1O (stereo not drawn) [Compound 34, 3-[5-((E)-2-Cyano-2-diethylcarbamoyl-vinyl)-2-hydroxy-3-nitro-phenoxycarbonyloxy]-butyric acid ethyl ester] | 14.6 ×10⁻⁶ cm/s |  |  |  |  |  |  |  |
| CCN(CC)CCOC(=O)Oc1cc(/C=C(\C#N)C(=O)N(CC)CC)cc([N+](=O)[O-])c1O [Compound 55, Carbonic acid 5-((E)-2-cyano-2-diethylcarbamoyl-vinyl)-2-hydroxy-3-nitro-phenyl ester 2-diethylamino-ethyl ester] |  | 4.1 h | < 1 h | 1 | > 1000 µg/mL | > 1000 µg/mL | > 1000 µg/mL | > 1000 µg/mL |
| CCN(CC)C(=O)/C(C#N)=C/c1cc(OC(=O)OCc2ccccc2)c(O)c([N+](=O)[O-])c1 [Compound 11, Carbonic acid benzyl ester 5-((E)-2-cyano-2-diethylcarbamoyl-vinyl)-2-hydroxy-3-nitro-phenyl ester] |  | 3 h | 4.1 h | 1.6 | 80 µg/mL (≈ 182 µM) | 20 µg/mL (≈ 45.5 µM) | 280 µg/mL (≈ 637 µM) | 150 µg/mL (≈ 341 µM) |
| CCN(CC)C(=O)COC(=O)Oc1cc(/C=C(\C#N)C(=O)N(CC)CC)cc([N+](=O)[O-])c1O [Compound 18, Carbonic acid 5-((E)-2-cyano-2-diethylcarbamoyl-vinyl)-2-hydroxy-3-nitro-phenyl ester diethylcarbamoylmethyl ester] | < 5.1 ×10⁻⁶ cm/s |  |  |  |  |  |  |  |
| CCCCCOC(=O)Oc1cc(/C=C(\C#N)C(=O)N(CC)CC)cc([N+](=O)[O-])c1O [Compound 6, Carbonic acid 5-((E)-2-cyano-2-diethylcarbamoyl-vinyl)-2-hydroxy-3-nitro-phenyl ester pentyl ester] | < 5.1 ×10⁻⁶ cm/s |  |  |  |  |  |  |  |
